The values below come from patent US9795587B2, “Compounds for enhancing hypoxia inducible factor activity and methods of use” (Cornell Research Foundation, Inc., priority 2005, dated 2017).

The subject of assay [1] is hypoxia response element regulated reporter gene. Kind of assay: Hypoxia response element (enolase promoter) luciferase reporter in cortical neurons. It is filed as cell-based, rat. The following applies: 40 μM, positive control, FIG. 5. The method, then:
FIG. 5. A cell permeant, peptide inhibitor of the HIF prolyl 4-hydroxylase, but not a mutant control, induces expression of HIF-dependent genes. […] The low molecular weight P4H inhibitor, FG-0041 (40 μM) was used as a positive control. To determine whether the Tat-HIF/ODD/wt peptide stabilizes HIF-1 leading to activation of HIF-1 dependent gene expression, the levels of a luciferase reporter gene that is regulated by a hypoxia response element found in the enolase gene promoter was monitored.
Background: In a reporter assay the amount or activity of a reporter protein is the signal.

The subject of assay [2] is HIF-1 target genes. The assay can be described thus: Expression of HIF-1 target genes in rat cerebral cortex (real time RT-PCR). The class given is in vivo. The following applies: 100 mg/kg i.p., Sprague Dawley rats, FIG. 4. On the procedure: HIF-1α protein levels were determined in nuclear extracts using a monoclonal anti-HIF-1α antibody (NOVUS Biologicals). Real time RT-PCR was performed in a ABI-7500 instruments using commercial Taqman gene expression assays (Applied BioSystems). Male Sprague Dawley rats, weighing 275-350 gm, were used in these experiments. For surgical procedures, anesthesia was induced with 5% isofluorane delivered in oxygen and maintained at 1.5% throughout surgery. Core body temperature was maintained at 37° C. by a homeothermic heating blanket. Animals were subjected to MCAo by the intraluminal filament method. The right external carotid artery was ligated, cauterized, and cut, and its branches were coagulated. A 35 mm length of 4-0 nylon monofilament (Ethicon) with a rounded tip was then inserted into the internal carotid artery via the proximal end of the external carotid artery stump. The filament was advanced 20 mm beyond the carotid artery bifurcation with slight resistance was encountered. The tilorone analogues R-10,874-DA, R-11,567-DA, and R-9536-DA were injected 100 mg/kg i.p. 24 h pre-MCAo. Equivalent volume of saline was injected i.p. to control rats. Animals were sacrificed 24 h post-MCAo.

For assay [3], the system named is HIF-1. Kind of assay: HIF-luciferase reporter (enolase 1 promoter-luciferase) in stably transfected HT22 cells. It is filed as cell-based. The following applies: HT22 murine hippocampal cells, FIG. 3. The method, then:
HT22 murine hippocampal cells were stably transfected with an enolase 1 promoter-luciferase reporter construct and selected with puromycin. Tilorone analogues R-10,874-DA, R-11,567-DA, and R-9536-DA were tested for their ability to activate a HIF-luciferase reporter. Luciferase activity was measured using a Luciferase Assay System (PROMEGA) according to the manufacture's protocol.

For the molecule `O=C(O)c1c[nH]c2c(ccc3cccnc32)c1=O` [FG-0041], the “induction of the HIF-dependent reporter gene” value in assay [1] is given as “stimulated”.

Regarding `CN(C)CCOc1ccc2c(=O)c3ccc(OCCN(C)C)cc3oc2c1.Cl.Cl` [R-10,874-DA, 3,6-bis[2-(dimethylamino)ethoxy]-9h-xanthen-9-one dihydrochloride], the “expression of HIF-1 target genes in the rat cerebral cortex” value in assay [2] was “induce the expression of HIF-1 target genes”. Further, in assay [3], the “HIF-1 transcriptional activity (HIF-luciferase reporter)” value is reported as “increase HIF-1 transcriptional activity”. For `CN(C)CC(=O)c1ccc2oc3ccc(C(=O)CN(C)C)cc3c2c1.Cl.Cl.O` [R-11,567-DA, 2,8-bis[dimethylaminoacetyl]dibenzofurin dihydrochloride hydrate], in that order: “induce the expression of HIF-1 target genes” and “increase HIF-1 transcriptional activity”.
